“And” between values parts separate entries of the source, which are not always exact repeats. Identical values can stand only once. ± gives the expanded uncertainty stated by the source.
Experiment: an = ratio of the nth substance listed
Conditions: 100 kPa, Liquid, Buoyancy - hydrostatic balance, a2 = 1.3

[F][Al]([F])[F] [aluminum fluoride] + [F-].[K+]
Conditions | mass density
953.37 K | 1875 ± 10 kg/m3
953.87 K | 1875 ± 11 kg/m3
954.03 K | 1875 ± 11 kg/m3
954.2 K | 1874 ± 10 kg/m3
954.52 K | 1874 ± 11 kg/m3
954.85 K | 1873 ± 10 kg/m3
955.23 K | 1873 ± 10 kg/m3
955.66 K | 1873 ± 10 kg/m3
955.95 K | 1873 ± 10 kg/m3
956.45 K | 1873 ± 11 kg/m3
957 K | 1872 ± 10 kg/m3
957.09 K | 1872 ± 10 kg/m3
957.11 K | 1872 ± 11 kg/m3
957.15 K | 1872 ± 11 kg/m3
957.8 K | 1871 ± 11 kg/m3
958.17 K | 1871 ± 11 kg/m3
958.39 K | 1870 ± 10 kg/m3
958.54 K | 1870 ± 10 kg/m3
958.92 K | 1870 ± 10 kg/m3
959.36 K | 1870 ± 10 kg/m3
959.42 K | 1870 ± 10 kg/m3
959.67 K | 1870 ± 10 kg/m3
960.14 K | 1869 ± 11 kg/m3
960.36 K | 1869 ± 10 kg/m3
961.06 K | 1868 ± 10 kg/m3
961.27 K | 1868 ± 10 kg/m3
961.32 K | 1868 ± 10 kg/m3
961.88 K | 1868 ± 10 kg/m3
961.97 K | 1868 ± 11 kg/m3
962.58 K | 1867 ± 10 kg/m3
962.79 K | 1866 ± 10 kg/m3
962.82 K | 1867 ± 10 kg/m3
963.09 K | 1867 ± 11 kg/m3
963.44 K | 1866 ± 10 kg/m3
963.53 K | 1866 ± 10 kg/m3
964.23 K | 1865 ± 10 kg/m3
964.32 K | 1865 ± 11 kg/m3
964.85 K | 1865 ± 10 kg/m3
965.05 K | 1865 ± 10 kg/m3
965.38 K | 1865 ± 10 kg/m3
965.94 K | 1864 ± 10 kg/m3
966 K | 1864 ± 10 kg/m3
966.18 K | 1864 ± 10 kg/m3
966.56 K | 1864 ± 10 kg/m3
966.7 K | 1863 ± 10 kg/m3
967.24 K | 1863 ± 10 kg/m3
967.73 K | 1862 ± 10 kg/m3
967.75 K | 1862 ± 10 kg/m3
968.06 K | 1862 ± 10 kg/m3
968.94 K | 1862 ± 11 kg/m3
968.96 K | 1862 ± 11 kg/m3
969.15 K | 1861 ± 10 kg/m3
969.33 K | 1861 ± 10 kg/m3
969.99 K | 1861 ± 10 kg/m3
970.3 K | 1861 ± 10 kg/m3
970.44 K | 1860 ± 10 kg/m3
970.89 K | 1860 ± 10 kg/m3
970.98 K | 1859 ± 10 kg/m3
971.14 K | 1860 ± 11 kg/m3
971.87 K | 1859 ± 11 kg/m3
972.13 K | 1859 ± 11 kg/m3
972.25 K | 1859 ± 11 kg/m3
972.6 K | 1859 ± 11 kg/m3
972.98 K | 1858 ± 11 kg/m3
973.21 K | 1858 ± 11 kg/m3
973.66 K | 1858 ± 11 kg/m3
973.77 K | 1858 ± 11 kg/m3
973.95 K | 1857 ± 11 kg/m3
974.37 K | 1857 ± 11 kg/m3
974.77 K | 1857 ± 11 kg/m3
975.15 K | 1856 ± 11 kg/m3
975.67 K | 1856 ± 11 kg/m3
975.77 K | 1856 ± 11 kg/m3
975.97 K | 1856 ± 11 kg/m3
976.61 K | 1855 ± 11 kg/m3
976.86 K | 1855 ± 11 kg/m3
976.9 K | 1855 ± 11 kg/m3
977.25 K | 1854 ± 11 kg/m3
977.4 K | 1854 ± 11 kg/m3
977.66 K | 1852 ± 11 kg/m3
978.13 K | 1852 ± 11 kg/m3
978.34 K | 1852 ± 11 kg/m3
978.99 K | 1852 ± 11 kg/m3
979.14 K | 1851 ± 11 kg/m3
979.65 K | 1850 ± 11 kg/m3
979.83 K | 1851 ± 11 kg/m3
980.46 K | 1850 ± 11 kg/m3
980.58 K | 1850 ± 11 kg/m3
980.92 K | 1850 ± 11 kg/m3
980.95 K | 1850 ± 11 kg/m3
981.3 K | 1849 ± 11 kg/m3
981.38 K | 1849 ± 11 kg/m3
982.18 K | 1849 ± 11 kg/m3
982.5 K | 1849 ± 11 kg/m3
982.75 K | 1848 ± 11 kg/m3
983.17 K | 1848 ± 11 kg/m3
983.33 K | 1847 ± 11 kg/m3
983.99 K | 1847 ± 10 kg/m3
984.08 K | 1847 ± 10 kg/m3
984.17 K | 1847 ± 10 kg/m3
984.63 K | 1846 ± 10 kg/m3
985 K | 1846 ± 10 kg/m3
985.5 K | 1846 ± 10 kg/m3
985.61 K | 1846 ± 10 kg/m3
986.09 K | 1845 ± 10 kg/m3
986.53 K | 1845 ± 10 kg/m3
986.96 K | 1845 ± 10 kg/m3
987.09 K | 1845 ± 10 kg/m3
987.31 K | 1844 ± 10 kg/m3
987.8 K | 1844 ± 10 kg/m3
988.08 K | 1844 ± 10 kg/m3
988.26 K | 1844 ± 11 kg/m3
988.64 K | 1843 ± 10 kg/m3
988.78 K | 1844 ± 10 kg/m3
989.33 K | 1843 ± 10 kg/m3
989.41 K | 1843 ± 10 kg/m3
990.26 K | 1842 ± 10 kg/m3
990.32 K | 1842 ± 10 kg/m3
991.02 K | 1842 ± 10 kg/m3
991.03 K | 1841 ± 10 kg/m3
991.17 K | 1842 ± 10 kg/m3
991.49 K | 1841 ± 10 kg/m3
992.13 K | 1841 ± 10 kg/m3
992.28 K | 1840 ± 10 kg/m3
992.47 K | 1841 ± 10 kg/m3
992.66 K | 1842 ± 10 kg/m3
992.84 K | 1842 ± 10 kg/m3
993.1 K | 1842 ± 10 kg/m3
993.15 K | 1840 ± 10 kg/m3
993.49 K | 1839 ± 10 kg/m3
993.5 K | 1840 ± 10 kg/m3
993.57 K | 1841 ± 10 kg/m3
993.62 K | 1840 ± 10 kg/m3
993.79 K | 1839 ± 10 kg/m3
993.81 K | 1841 ± 10 kg/m3
993.83 K | 1841 ± 10 kg/m3
994.35 K | 1838 ± 10 kg/m3
994.37 K | 1839 ± 10 kg/m3
994.52 K | 1838 ± 10 kg/m3
994.62 K | 1840 ± 10 kg/m3
995.21 K | 1838 ± 10 kg/m3
995.25 K | 1840 ± 10 kg/m3
995.47 K | 1840 ± 10 kg/m3
995.64 K | 1840 ± 10 kg/m3
995.66 K | 1838 ± 10 kg/m3
996.05 K | 1838 ± 10 kg/m3
996.18 K | 1839 ± 10 kg/m3
996.21 K | 1838 ± 10 kg/m3
996.6 K | 1839 ± 10 kg/m3
996.7 K | 1837 ± 10 kg/m3
996.81 K | 1836 ± 10 kg/m3
996.88 K | 1839 ± 10 kg/m3
997.13 K | 1836 ± 10 kg/m3
997.4 K | 1836 ± 10 kg/m3
997.41 K | 1838 ± 10 kg/m3
997.63 K | 1838 ± 10 kg/m3
997.84 K | 1837 ± 10 kg/m3
997.92 K | 1836 ± 10 kg/m3
997.99 K | 1836 ± 10 kg/m3
998.24 K | 1835 ± 11 kg/m3
998.66 K | 1837 ± 10 kg/m3
998.67 K | 1837 ± 11 kg/m3
998.83 K | 1835 ± 11 kg/m3
999.09 K | 1836 ± 11 kg/m3
999.14 K | 1836 ± 11 kg/m3
999.24 K | 1836 ± 10 kg/m3
999.27 K | 1835 ± 10 kg/m3
999.3 K | 1837 ± 10 kg/m3
999.38 K | 1837 ± 10 kg/m3
999.39 K | 1835 ± 10 kg/m3
999.51 K | 1836 ± 10 kg/m3
999.7 K | 1834 ± 10 kg/m3
1000.2 K | 1834 ± 10 kg/m3
1000.5 K | 1835 ± 10 kg/m3
1000.8 K | 1833 ± 11 kg/m3
1000.9 K | 1834 ± 10 kg/m3
1001.1 K | 1835 ± 11 kg/m3
1001.3 K | 1834 ± 11 kg/m3
1001.4 K | 1833 ± 11 kg/m3
1001.5 K | 1834 ± 11 kg/m3
1001.6 K | 1833 ± 11 kg/m3
1001.7 K | 1834 ± 11 kg/m3
1002.2 K | 1832 ± 11 kg/m3 and 1833 ± 10 kg/m3
1002.4 K | 1833 ± 11 kg/m3
1002.7 K | 1833 ± 11 kg/m3
1002.9 K | 1832 ± 11 kg/m3 and 1832 ± 10 kg/m3
1003.4 K | 1832 ± 10 kg/m3 and 1832 ± 11 kg/m3
1003.5 K | 1831 ± 11 kg/m3
1003.7 K | 1832 ± 11 kg/m3
1004.2 K | 1831 ± 11 kg/m3
1004.3 K | 1831 ± 10 kg/m3 and 1830 ± 10 kg/m3
1004.8 K | 1831 ± 11 kg/m3 and 1830 ± 11 kg/m3
1005 K | 1831 ± 10 kg/m3
1005.1 K | 1831 ± 11 kg/m3 and 1830 ± 11 kg/m3
1005.6 K | 1830 ± 11 kg/m3
1005.7 K | 1830 ± 11 kg/m3
1006 K | 1829 ± 10 kg/m3
1006.3 K | 1830 ± 10 kg/m3
1006.4 K | 1830 ± 10 kg/m3
1006.5 K | 1830 ± 11 kg/m3 and 1829 ± 11 kg/m3
1006.9 K | 1829 ± 10 kg/m3 and 1827 ± 10 kg/m3
1007 K | 1829 ± 11 kg/m3
1007.1 K | 1828 ± 11 kg/m3
1007.3 K | 1828 ± 11 kg/m3
1007.4 K | 1828 ± 11 kg/m3 and 1829 ± 11 kg/m3
1007.7 K | 1827 ± 11 kg/m3
1007.9 K | 1827 ± 11 kg/m3
1008 K | 1827 ± 11 kg/m3
1008.2 K | 1827 ± 11 kg/m3
1008.3 K | 1828 ± 11 kg/m3
1008.5 K | 1827 ± 11 kg/m3
1008.8 K | 1827 ± 11 kg/m3
1009 K | 1827 ± 11 kg/m3
1009.2 K | 1827 ± 11 kg/m3
1009.4 K | 1827 ± 11 kg/m3
1009.6 K | 1826 ± 11 kg/m3
1009.8 K | 1826 ± 11 kg/m3
1010 K | 1825 ± 11 kg/m3
1010.1 K | 1825 ± 11 kg/m3
1010.3 K | 1825 ± 10 kg/m3
1010.7 K | 1825 ± 11 kg/m3
1010.9 K | 1825 ± 11 kg/m3
1011 K | 1825 ± 11 kg/m3
1011.1 K | 1825 ± 11 kg/m3
1011.2 K | 1825 ± 11 kg/m3
1011.3 K | 1824 ± 11 kg/m3
1011.6 K | 1823 ± 10 kg/m3
1011.7 K | 1824 ± 11 kg/m3
1012 K | 1824 ± 11 kg/m3
1012.2 K | 1824 ± 11 kg/m3
1012.4 K | 1824 ± 11 kg/m3
1012.5 K | 1824 ± 11 kg/m3
1012.6 K | 1823 ± 11 kg/m3
1012.9 K | 1824 ± 10 kg/m3
1013.1 K | 1822 ± 10 kg/m3
1013.4 K | 1823 ± 11 kg/m3
